Source: PubChem BioAssay (NCI)
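Dose response: 5 concentrations. Exposure: 48 h. Format: 96-well plates. Endpoint: linear interpolation; highest concentration if not reached. GI50: concentration for 50% inhibition of growth. TGI is the concentration that stops growth completely.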

Experiments:
Experiment in all cases: NCI anticancer screen, dose series, 48 h
EKVX NSCLC = test system: EKVX NSCLC
OVCAR-3 ovarian = test system: OVCAR-3 ovarian
HCC-2998 colon = test system: HCC-2998 colon
MALME-3M melanoma = test system: MALME-3M melanoma
M14 melanoma = test system: M14 melanoma
CAKI-1 renal = test system: CAKI-1 renal
COLO 205 colon = test system: COLO 205 colon
UO-31 renal = test system: UO-31 renal
HCT-15 colon = test system: HCT-15 colon
U251 CNS = test system: U251 CNS
UACC-257 melanoma = test system: UACC-257 melanoma
SNB-19 CNS = test system: SNB-19 CNS
NCI-H522 lung = test system: NCI-H522 lung
HS 578T breast = test system: HS 578T breast
HL-60(TB) leukemia = test system: HL-60(TB) leukemia
HCT-116 colon = test system: HCT-116 colon
NCI/ADR-RES ovarian = test system: NCI/ADR-RES ovarian
SF-268 CNS = test system: SF-268 CNS
NCI-H23 lung = test system: NCI-H23 lung
OVCAR-8 ovarian = test system: OVCAR-8 ovarian
MDA-MB-231 breast = test system: MDA-MB-231 breast
HOP-62 NSCLC = test system: HOP-62 NSCLC
A549 NSCLC = test system: A549 NSCLC
OVCAR-4 ovarian = test system: OVCAR-4 ovarian
MCF7 breast = test system: MCF7 breast
T-47D breast = test system: T-47D breast
RXF 393 renal = test system: RXF 393 renal
UACC-62 melanoma = test system: UACC-62 melanoma
K-562 leukemia = test system: K-562 leukemia

Question: Which results are given for C=C(C)[C@@H]1CC[C@]2(COP(=O)(OCC)OCC)CC[C@]3(C)[C@H](CC[C@@H]4[C@@](C)(CCCN)[C@H](C(=C)C)CC[C@]43C)[C@@H]12?
Answer: GI50 (EKVX NSCLC): 4.88 µM; TGI (EKVX NSCLC): 18.5 µM; GI50 (OVCAR-3 ovarian): 3 µM; TGI (OVCAR-3 ovarian): 12.7 µM; GI50 (HCC-2998 colon): 3.7 µM; TGI (HCC-2998 colon): 15.1 µM; GI50 (MALME-3M melanoma): 7.16 µM; TGI (MALME-3M melanoma): 19.7 µM; GI50 (M14 melanoma): 5.13 µM; TGI (M14 melanoma): 20.4 µM; GI50 (CAKI-1 renal): 4.12 µM; TGI (CAKI-1 renal): 17.3 µM; GI50 (COLO 205 colon): 4.56 µM; TGI (COLO 205 colon): 19.2 µM; GI50 (UO-31 renal): 3.58 µM; TGI (UO-31 renal): 15.2 µM; GI50 (HCT-15 colon): 3.76 µM; TGI (HCT-15 colon): 13.7 µM; GI50 (U251 CNS): 6.51 µM; TGI (U251 CNS): 20.7 µM; GI50 (UACC-257 melanoma): 5.55 µM; TGI (UACC-257 melanoma): 18.3 µM; GI50 (SNB-19 CNS): 10 µM; TGI (SNB-19 CNS): 21.7 µM; GI50 (NCI-H522 lung): 3.01 µM; TGI (NCI-H522 lung): 14.1 µM; GI50 (HS 578T breast): 4.67 µM; TGI (HS 578T breast): 24.3 µM; GI50 (HL-60(TB) leukemia): 2.87 µM; TGI (HL-60(TB) leukemia): 9.23 µM; GI50 (HCT-116 colon): 2.92 µM; TGI (HCT-116 colon): 13.2 µM; GI50 (NCI/ADR-RES ovarian): 5.45 µM; TGI (NCI/ADR-RES ovarian): 21.7 µM; GI50 (SF-268 CNS): 6.46 µM; TGI (SF-268 CNS): 23.8 µM; GI50 (NCI-H23 lung): 4.73 µM; TGI (NCI-H23 lung): 17.8 µM; GI50 (OVCAR-8 ovarian): 6.35 µM; TGI (OVCAR-8 ovarian): 23.1 µM; GI50 (MDA-MB-231 breast): 7.53 µM; TGI (MDA-MB-231 breast): 20.1 µM; GI50 (HOP-62 NSCLC): 11.1 µM; TGI (HOP-62 NSCLC): 24.9 µM; GI50 (A549 NSCLC): 4.45 µM; TGI (A549 NSCLC): 18.5 µM; GI50 (OVCAR-4 ovarian): 5.35 µM; TGI (OVCAR-4 ovarian): 21.8 µM; GI50 (MCF7 breast): 3.08 µM; TGI (MCF7 breast): 12 µM; GI50 (T-47D breast): 3.23 µM; TGI (T-47D breast): 13.9 µM; GI50 (RXF 393 renal): 3.42 µM; TGI (RXF 393 renal): 15.2 µM; GI50 (UACC-62 melanoma): 4.45 µM; TGI (UACC-62 melanoma): 17.2 µM; GI50 (K-562 leukemia): 3.77 µM; TGI (K-562 leukemia): > 100 µM
